According to patent publication US12144864B2, “Tubulysins and protein-tubulysin conjugates” (Regeneron Pharmaceuticals, Inc., priority 2018, dated 2024):
pIC50: −log10 of the molar value. Like-named read-outs stand apart in the source and are kept apart here.

Key:
[1] = tested on: C4-2 cells; test: Cell-based killing assay of payloads (CellTiter-Glo), C4-2 cells; design: species or system human; details: 5-day incubation; for pIC50: Homo sapiens, C4-2, 120 h, average ± SD where replicates; for C4-2 % Kill: at maximum concentration tested (100 − % viable cells)
Summary of the method: (§1)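 Cells plated at 4000/well in line-specific complete medium, grown overnight, then exposed to 1:3 serial dilutions of payload (100 nM to […]) for 5 days. ATP-based CellTiter-Glo luminescence read; IC50 from four-parameter logistic 10-point fit, and % kill at top concentration as 100 − % viable.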

[2] = tested on: T47D cells; test: Cell-based killing assay of payloads (CellTiter-Glo), T47D cells; design: species or system human; details: 5-day incubation; for pIC50: Homo sapiens, T47D, 120 h; for T47D % Kill: at maximum concentration tested
Summary of the method: as §1

[3] = tested on: HEK293 cells; test: Cell-based killing assay of payloads (CellTiter-Glo), HEK293 cells; design: species or system human; details: 5-day incubation; for pIC50: Homo sapiens, HEK293, 120 h; for HEK293 % Kill: at maximum concentration tested
Summary of the method: as §1

[4] = tested on: HCT15 cells; test: cells; assay type: cell-based, human; details: HCT15 cells; for HCT-15 + verapamil % Kill / HCT-15 % Kill: maximum % cell killing
Summary of the method: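 HCT15 colorectal carcinoma cells, 1000 per well in RPMI/10% FBS, with or without 5 ug/mL verapamil, exposed to 1:3 serially diluted payloads for 5 days at 37 °C. Viability measured by CellTiter-Glo ATP luminescence; IC50 from four-parameter logistic fit of a 10-point curve, % kill at top concentration.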

[5] = tested on: HL60/MX2 cells; test: Cytotoxicity in panel of MDR cell lines, HL60/MX2 (72 h and 144 h); assay type: cell-based, human; details: for pIC50: Homo sapiens
Summary of the method: (§2)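 MDR lines (HCT-15; doxorubicin-resistant H69AR; mitoxantrone-resistant MES-SA/MX2 and HL60/MX2) seeded at 1000 cells/well in normal growth media, treated with 1:3 serially diluted payloads for 72 h and 144 h. Viability by CellTiter-Glo ATP luminescence; IC50 from four-parameter logistic fit of 10-point curves.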

[6] = tested on: MES-SA/MX2 cells; test: Cytotoxicity in panel of MDR cell lines, MES-SA/MX2 (72 h and 144 h); assay type: cell-based, human; details: for pIC50: Homo sapiens
Summary of the method: as §2

[7] = tested on: HCT-15 cells; test: Cytotoxicity in panel of MDR cell lines, HCT-15 (72 h and 144 h); assay type: cell-based, human; details: for pIC50: Homo sapiens
Summary of the method: as §2

[8] = tested on: H69AR cells; test: Cytotoxicity in panel of MDR cell lines, H69AR (72 h and 144 h); assay type: cell-based, human; details: for pIC50: Homo sapiens
Summary of the method: as §2

[9] = with 5 ug/mL Verapamil, read-out: HCT-15 + verapamil IC50
[10] = Homo sapiens, HCT-15, without Verapamil, read-out: HCT-15 IC50
[11] = 72 h incubation, read-out: HL60/MX2 IC50 72 h
[12] = 144 h incubation, read-out: HL60/MX2 IC50 144 h
[13] = 72 h incubation, read-out: MES-SA/MX2 IC50 72 h
[14] = 144 h incubation, read-out: MES-SA/MX2 IC50 144 h
[15] = 72 h incubation, read-out: HCT-15 IC50 72 h
[16] = 144 h incubation, read-out: HCT-15 IC50 144 h
[17] = 72 h incubation, read-out: H69AR IC50 72 h
[18] = 144 h incubation, read-out: H69AR IC50 144 h

With CCCCCON(C(=O)[C@@H](NC(=O)[C@H]1CCCCN1C)[C@@H](C)CC)[C@H](C[C@@H](OC(C)=O)c1nc(C(=O)N[C@@H](Cc2ccc(N)cc2)CC(C)(C)C(=O)O)cs1)C(C)C [Vb, (4S)-4-({2-[(1R,3R)-1-(Acetyloxy)-4-methyl-3-[(2S,3S)-3-methyl-2-{[(2R)-1-methylpiperidin-2-yl]formamido}-N-(pentyloxy)pentanamido]pentyl]-1,3-thiazol-4-yl}formamido)-5-(4-aminophenyl)-2,2-dimethylpentanoic acid] the pIC50 [1] was 10.15, the “C4-2 % Kill” value [1] was 92.3 ± 1.7% and the pIC50 [2] was 9.84. The “T47D % Kill” value [2] was 66.5%, the pIC50 [3] was 9.54 and the “HEK293 % Kill” value [3] was 87.8%. The “HCT-15 + verapamil % Kill” value ([4]; with 5 ug/mL Verapamil) was 98.2 ± 0.5%, the pIC50 [4, 9] was 10.44 and the “HCT-15 % Kill” value ([4]; without Verapamil) was 98.8 ± 0.7%. For the same compound, the pIC50 [4, 10] was 9.92, the “HL60/MX2 % Kill 72 h” value ([5]; 72 h incubation) was 97.9% and the “HL60/MX2 % Kill 144 h” value ([5]; 144 h incubation) was 100%. The pIC50 [5, 11] was greater than 10.82, the pIC50 [5, 12] was greater than 10.82 and the “MES-SA/MX2 % Kill 72 h” value ([6]; 72 h incubation) was 99.6%. For the same compound, the “MES-SA/MX2 % Kill 144 h” value ([6]; 144 h incubation) was 99.9%, the pIC50 [6, 13] was 9.67 and the pIC50 [6, 14] was 8.98. The “HCT-15 % Kill 72 h” value ([7]; 72 h incubation) was 97.8%, the “HCT-15 % Kill 144 h” value ([7]; 144 h incubation) was 99.7% and the pIC50 [7, 15] was 10.21. The pIC50 [7, 16] was 9.90, the “H69AR % Kill 72 h” value ([8]; 72 h incubation) was 97% and the “H69AR % Kill 144 h” value ([8]; 144 h incubation) was 99.4%. The pIC50 [8, 17] was 9.57 and the pIC50 [8, 18] was 9.18.
For C#CCCCON(C(=O)[C@@H](NC(=O)[C@H]1CCCCN1C)[C@@H](C)CC)[C@H](C[C@@H](OC(C)=O)c1nc(C(=O)N[C@@H](Cc2ccccc2)CC(C)(C)C(=O)O)cs1)C(C)C [Vc, (4S)-4-({2-[(1R,3R)-1-(Acetyloxy)-4-methyl-3-[(2S,3S)-3-methyl-2-{[(2R)-1-methylpiperidin-2-yl]formamido}-N-(pent-4-yn-1-yloxy)pentanamido]pentyl]-1,3-thiazol-4-yl}formamido)-2,2-dimethyl-5-phenylpentanoic acid], the pIC50 [1] was 10.44, the “C4-2 % Kill” value [1] was 91.7% and the pIC50 [2] was 10.17. For the same compound, the “T47D % Kill” value [2] was 64.9%, the pIC50 [3] was 9.95 and the “HEK293 % Kill” value [3] was 86.9%. For the same compound, the “HCT-15 + verapamil % Kill” value ([4]; with 5 ug/mL Verapamil) was 96.7%, the pIC50 [4, 9] was 9.84 and the “HCT-15 % Kill” value ([4]; without Verapamil) was 97.6%. The pIC50 [4, 10] was 9.32, the “HL60/MX2 % Kill 72 h” value ([5]; 72 h incubation) was 98.4% and the “HL60/MX2 % Kill 144 h” value ([5]; 144 h incubation) was 99.9%. The pIC50 [5, 11] was greater than 10.82, the pIC50 [5, 12] was greater than 10.82 and the “MES-SA/MX2 % Kill 72 h” value ([6]; 72 h incubation) was 99.2%. The “MES-SA/MX2 % Kill 144 h” value ([6]; 144 h incubation) was 100%, the pIC50 [6, 13] was 10.05 and the pIC50 [6, 14] was 9.52. For the same compound, the “HCT-15 % Kill 72 h” value ([7]; 72 h incubation) was 97.6%, the “HCT-15 % Kill 144 h” value ([7]; 144 h incubation) was 99.7% and the pIC50 [7, 15] was 10.48. For the same compound, the pIC50 [7, 16] was 10.17, the “H69AR % Kill 72 h” value ([8]; 72 h incubation) was 96.6% and the “H69AR % Kill 144 h” value ([8]; 144 h incubation) was 99.4%. The pIC50 [8, 17] was 9.81 and the pIC50 [8, 18] was 9.54.
For C#CCCCON(C(=O)[C@@H](NC(=O)[C@H]1CCCCN1C)[C@@H](C)CC)[C@H](C[C@@H](OC(C)=O)c1nc(C(=O)N[C@@H](Cc2ccc(O)cc2)C[C@H](C)C(=O)O)cs1)C(C)C [Vg, (2S,4R)-4-({2-[(1R,3R)-1-(Acetyloxy)-4-methyl-3-[(2S,3S)-3-methyl-2-{[(2R)-1-methylpiperidin-2-yl]formamido}-N-(pent-4-yn-1-yloxy)pentanamido]pentyl]-1,3-thiazol-4-yl}formamido)-5-(4-hydroxyphenyl)-2-methylpentanoic acid], the pIC50 [1] was 9.43, the “C4-2 % Kill” value [1] was 93.2% and the pIC50 [2] was 9.27. For the same compound, the “T47D % Kill” value [2] was 65.2%, the pIC50 [3] was 9.15 and the “HEK293 % Kill” value [3] was 86.4%. The “HCT-15 + verapamil % Kill” value ([4]; with 5 ug/mL Verapamil) was 98%, the pIC50 [4, 9] was 9.63 and the “HCT-15 % Kill” value ([4]; without Verapamil) was 94.9%. The pIC50 [4, 10] was 9.28, the “HL60/MX2 % Kill 72 h” value ([5]; 72 h incubation) was 98% and the “HL60/MX2 % Kill 144 h” value ([5]; 144 h incubation) was 99.9%. For the same compound, the pIC50 [5, 11] was 9.88, the pIC50 [5, 12] was 10.21 and the “MES-SA/MX2 % Kill 72 h” value ([6]; 72 h incubation) was 98%. The “MES-SA/MX2 % Kill 144 h” value ([6]; 144 h incubation) was 99.8%, the pIC50 [6, 13] was 8.45 and the pIC50 [6, 14] was 8.28. For the same compound, the “HCT-15 % Kill 72 h” value ([7]; 72 h incubation) was 97.6%, the “HCT-15 % Kill 144 h” value ([7]; 144 h incubation) was 99.5% and the pIC50 [7, 15] was 9.17. The pIC50 [7, 16] was 9.04, the “H69AR % Kill 72 h” value ([8]; 72 h incubation) was 94.2% and the “H69AR % Kill 144 h” value ([8]; 144 h incubation) was 98.4%. It also gave a pIC50 [8, 17] of 8.67 and a pIC50 [8, 18] of 8.57.
C#CCCCON(C(=O)[C@@H](NC(=O)[C@H]1CCCCN1C)[C@@H](C)CC)[C@H](C[C@@H](OC(C)=O)c1nc(C(=O)N[C@@H](Cc2ccc(N)cc2)C[C@H](C)C(=O)O)cs1)C(C)C [Vh, (2S,4R)-4-({2-[(1R,3R)-1-(Acetyloxy)-4-methyl-3-[(2S,3S)-3-methyl-2-{[(2R)-1-methylpiperidin-2-yl]formamido}-N-(pent-4-yn-1-yloxy)pentanamido]pentyl]-1,3-thiazol-4-yl}formamido)-5-(4-aminophenyl)-2-methylpentanoic acid] was tested, and the pIC50 [1] was 9.29, the “C4-2 % Kill” value [1] was 92% and the pIC50 [2] was 9.34. For the same compound, the “T47D % Kill” value [2] was 64.5%, the pIC50 [3] was 9.14 and the “HEK293 % Kill” value [3] was 85.6%. For the same compound, the “HCT-15 + verapamil % Kill” value ([4]; with 5 ug/mL Verapamil) was 98.1%, the pIC50 [4, 9] was 9.23 and the “HCT-15 % Kill” value ([4]; without Verapamil) was 97.7%. The pIC50 [4, 10] was 8.83, the “HL60/MX2 % Kill 72 h” value ([5]; 72 h incubation) was 97.5% and the “HL60/MX2 % Kill 144 h” value ([5]; 144 h incubation) was 99.9%. For the same compound, the pIC50 [5, 11] was 9.76, the pIC50 [5, 12] was greater than 10.82 and the “MES-SA/MX2 % Kill 72 h” value ([6]; 72 h incubation) was 98.4%. For the same compound, the “MES-SA/MX2 % Kill 144 h” value ([6]; 144 h incubation) was 99.8%, the pIC50 [6, 13] was 8.53 and the pIC50 [6, 14] was 8.09. For the same compound, the “HCT-15 % Kill 72 h” value ([7]; 72 h incubation) was 97%, the “HCT-15 % Kill 144 h” value ([7]; 144 h incubation) was 99.6% and the pIC50 [7, 15] was 9.06. The pIC50 [7, 16] was 8.90, the “H69AR % Kill 72 h” value ([8]; 72 h incubation) was 93.7% and the “H69AR % Kill 144 h” value ([8]; 144 h incubation) was 98.4%. It also gave a pIC50 [8, 17] of 8.59 and a pIC50 [8, 18] of 8.38.
